Assay results taken from patent EP4310093A1, “AMINO ACID DERIVATIVE, PREPARATION METHOD THEREFOR, AND PHARMACEUTICAL COMPOSITION FOR TREATING HEPATITIS, COMPRISING SAME” (priority 2021, dated 2022).

What was measured:
[1] = tested on: Jurkat cell line; assay: Cytotoxicity, WST-1 cell viability; type: cell-based, human; conditions: 0.2 µM ~ 50 µM, 24 and 48 hours
Experimental: For Example 1 (LCA-Ile), Example 44 (LCA-Val), Example 2 (UDCA-Ile), and Example 3 (UDCA-Val), cytotoxicity was evaluated in the Jurkat cell line, a human T lymphocyte-derived cell line. Jurkat cell lines were seeded at a density of 5 × 10^4 on a 96 well plate for overnight incubation, and each compound was treated at a concentration of 0.2 µM ~ 50 µM for 24 or 48 hours. WST-1, a reagent for measuring cell viability, was loaded at 10 µl/well, and absorbance was measured at 440 nm using a microplate reader 2 hours later. The mean value of negative control (NC) group treated with only DMSO was calculated as 1 and the cytotoxicity for the remaining experimental group was evaluated.

[2] = tested on: HBV; assay: Inhibition of intracellular HBV virus invasion, HBeAg ELISA analysis; type: cell-based; conditions: 20 µM, HepG2-NTCP cell line, HBV 3000 Geq/cell, O.D. at 450 nm
Experimental: (§1) In order to evaluate the ability to inhibit intracellular HBV virus entry (invasion), Enzyme-linked immunosorbent assay (ELISA) analysis to measure HBeAg, which is associated with high infectivity as an antigen in the HBV virus core portion, and Southern blot analysis to measure DNA of HBV were performed.
(§2) Specifically, the HepG2-NTCP cell line was cultured on a 6-well plate, incubation was performed overnight, HBV inhibitors were treated at a concentration of 20 µM, and the positive control Myrcludex-B (MyrB) was treated at a concentration of 200 nM, followed by culture for 24 hours. After HBV infection into the cells to make HBV 3000 genome equivalent per ml/cell (Geq/cell), the cell culture medium was replaced (medium changing, MC) a day after the viral infection to remove the virus unattached to cell membranes. In order to measure an amount of virus that entered the cell, medium changing (MC) was performed once more 4 days after viral infection. 2 days after replacement, HBeAg ELISA analysis was performed using a supernatant, and Southern blot analysis was performed with cell pellets.
HBeAg ELISA analysis was performed using an HBeAg ELISA kit (sanbio, Wantai HBeAg ELISA, cat#WB-2496) for the supernatant obtained by the method in Experimental Example 4-1.
First, a negative control group (Mock), positive control group (MyrB), and samples according to the present disclosure were loaded, by 50 µl each to be triplicate, onto a 96-well plate coated with capture Ab. In this case, Example 1 (LCA-ILE), Example 44 (LCA-Val), Example 52 (LCA-Tyr), Example 51 (LCA-Ser), Example 55 (LCA-Glu), Example 2 (UDCA-Ile), Example 3 (UDCA-Val), Example 25 (LCA-Val-Trp), Example 10 (DCA-Ile), Comparative Example 1 (LCA), and Comparative Example 2 (UDCA) were used as the sample.
The HRP-conjugated detection antibody was loaded into each well by 50 µl, followed by a reaction at 37°C for 30 minutes. Washing buffer (1X PBS, 0.5% Tween20) was added by 200 µl, and washing was performed 5 times. 50 µl of chromogen solution A and 50 µl of chromogen solution B were added to each well, and a reaction was carried out in the darkness at 37°C for 15 minutes. The stop solution was added to each well by 50 µl each to stop the reaction, and the amount of HBeAg was measured by measuring the absorbance (optical density, O.D.) level in the 450 nm wavelength band.

[3] = tested on: HBV; assay: Inhibition of intracellular HBV virus invasion, Southern blot analysis; type: cell-based
Experimental: as §1, §2
For the cell pellet obtained by the method of Experimental Example 4-1, Southern blot analysis for measurement of […] DNA was performed using Example 1 (LCA-Ile), Example 44 (LCA-Val), Example 52 (LCA-Tyr), Example 51 (LCA-Ser), Example 55 (LCA-Glu), Example 2 (UDCA-Ile), Example 3 (UDCA-Val), Example 25 (LCA-Val-Trp), Example 10 (DCA-Ile), Comparative Example 1 (LCA), and Comparative Example 2 (UDCA).
First, the cell pellets were pipetted with 100 µl of HEPES lysis buffer (10 mM HEPES, 100 mM NaCl, 1 mM EDTA, 1% NP-40), placed on ice for 20 minutes, and then centrifuged with a centrifuge under the conditions at 4°C and 13000 rpm. After transferring the supernatant only to the new microtube, 4.5 µl of nuclease buffer I (10 mM CaCl2, 12 mM MgCl2, DNase 10 units) was added to carry out a reaction at 37°C for 2 hours, and 40 µl of 26% PEG solution was added, followed by a reaction on ice for 1 hour. After centrifuging with the centrifuge at 4°C and 13000 rpm for 30 minutes, and the supernatant was removed cleanly. After releasing the pellets with 100 µl of nuclease buffer II (10 mM Tris, 8 mM CaCl2, 6mM MgCl2), 287.5 µl of 0.5% SDS buffer (25 mM Tris, 10 mM EDTA, 0.5% SDS, 100 mM NaCl) was added, and 12.5 µl of 20 mg/ml proteinase K was added, followed by a reaction at 37°C for 2 hours. 400 µl of phenol-chloroform-isoamyl alcohol was added, centrifugation was performed at room temperature at 13000 rpm after voltexing, the supernatant was transferred to a new tube, 40 µl of 3 M NaOAc was added, and 800 µl of 100% ethanol was added for inverting, followed by a reaction overnight at -20°C. After performing centrifugation at 4°C and 13000 rpm for 30 minutes, 800 µl of 70% ethanol was added and mixed to the pellet obtained by removing the supernatant, centrifugation was performed at 4°C and 13000 rpm for 10 minutes, and then the supernatant was discarded. The ethanol was dried for 5 minutes to leave only the HBV DNA pellets, and then the pellets were dissolved again in 15 µl of TE buffer (10 mM Tris, 1 mM EDTA). HBV DNA samples were loaded in 1% agarose gel, and electrophoresis was performed. It was then immersed in denature buffer (0.25 N NaOH, 1 M NaCl) for 30 minutes to denature dsDNA of HBV into ssDNA. The DNA in the gel was transferred to a Nylon membrane using a transfer buffer (0.4 M NaOH), the membrane was soaked with a 2X SSC buffer (sigma, cat# 85639) for neutralization, followed by drying in air. The membrane was immersed in a church buffer (10% BSA, 0.5 M EDTA, 1 M NaPi, 20% SDS), and the radioisotopes were hybridized using a Mega prime kit (GE healthcare, RPN1607). After washing three times with washing buffer (2X SSC, 0.1% SDS), measurement was performed using radioisotope measurement equipment, and a relative replication rate (%) to the negative control group (Mock) was calculated and shown.

`CC[C@@H](C)[C@H](NC(=O)CC[C@@H](C)[C@H]1CC[C@H]2[C@@H]3CC[C@@H]4C[C@H](O)CC[C@]4(C)[C@H]3CC[C@]12C)C(=O)O` [Example 1, (2S,3R)-2-((R)-4-((3R,5R,8R,9S,10S,13R,14S,17R)-3-hydroxy-10,13-dimethyl-hexadecahydro-1H-cyclopenta[a]phenanthren-17-yl)pentanamido)-3-methylpentanoic acid] was tested, and the cytotoxicity [1] was “barely observed”, the “HBeAg absorbance level compared with Comparative Example 1 (LCA) and Comparative Example 2 (UDCA)” value [2] was “lower” and the “HBeAg absorbance level compared with the negative control group (Mock)” value [2] was “relatively lower”. The “amount of HBeAg DNA detected compared to the negative control group (Mock)” value ([3]; 20 µM, HepG2-NTCP cell line, HBV 3000 Geq/cell) was “relatively less amount” and the activity at 20 µM ([3]; Hepatitis B virus, read-out: relative replication rate of quantified HBeAg DNA to the negative control group (Mock), 20 µM, HepG2-NTCP cell line, HBV 3000 Geq/cell) was less than 80%.
